Test results taken from PMC3188330 (2011).

Tests used:
UGT1A10 [1] = target: T1, UGT1A10 (Homo sapiens, UniProt Q9HAW8); assay: glucuronidation rate at […]; assay type: cell-based
T1 sequence (Q9HAW8 26-530): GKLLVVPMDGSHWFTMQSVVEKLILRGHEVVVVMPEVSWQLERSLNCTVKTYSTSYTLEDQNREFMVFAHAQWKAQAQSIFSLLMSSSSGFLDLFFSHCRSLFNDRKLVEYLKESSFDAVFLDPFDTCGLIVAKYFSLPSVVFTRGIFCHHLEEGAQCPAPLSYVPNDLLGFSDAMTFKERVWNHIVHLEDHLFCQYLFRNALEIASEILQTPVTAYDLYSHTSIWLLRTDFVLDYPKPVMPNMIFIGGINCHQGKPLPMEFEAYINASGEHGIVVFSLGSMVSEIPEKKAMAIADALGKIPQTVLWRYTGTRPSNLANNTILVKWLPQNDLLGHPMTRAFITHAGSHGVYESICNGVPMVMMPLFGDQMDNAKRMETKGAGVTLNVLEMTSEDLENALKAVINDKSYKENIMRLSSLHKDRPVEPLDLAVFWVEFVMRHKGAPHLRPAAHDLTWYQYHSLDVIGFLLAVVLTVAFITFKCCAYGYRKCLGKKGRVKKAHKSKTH

UGT1A10 [2] = target: T1, UGT1A10; assay: glucuronidation rate at […]; assay type: cell-based; remark: listed apart in the source

Row | Compound | glucuronidation rate at 100 μM (HPLC) (UGT1A10 [1]) | glucuronidation rate at 500 μM (HPLC) (UGT1A10 [2])
1 | Oc1cccc2ccccc12 [1-naphthol] | F93L catalyzed 1-naphthol glucuronidation at about twice the rate of the control UGT1A10 | 
2 | COc1cc2ccc(=O)oc2cc1O [scopoletin] |  | majority of the mutants were higher than control, up to six fold the (normalized) rate of UGT1A10
